The target of one assay is 5-HT2A receptor (Homo sapiens (Human), UniProt P28223). Nature of the assay: Radioligand binding assay ([3H]-ketanserin) on membranes of HEK293 EBNA cells expressing human 5-HT2A receptor. The conditions noted are these: read-out: 5HT2A Ki.
The target of another assay is D2 receptor (Homo sapiens (Human), UniProt P14416). Briefly: Radioligand binding assay ([3H]-spiperone) on membranes of HEK293 EBNA cells expressing human D2 receptor. The conditions noted are these: human receptor in HEK293 EBNA cells; 0.7 nM [3H]-spiperone.
The target in the next assay is D3 receptor (Homo sapiens (Human), UniProt P35462). Nature of the assay: Radioligand binding assay ([3H]-spiperone) on membranes of HEK293 EBNA cells expressing human D3 receptor. The conditions noted are these: read-out: D3 Ki; human receptor in HEK293 EBNA cells; 0.5 nM [3H]-spiperone.
[1] abbreviates: human receptor in HEK293 EBNA cells, 1.1 nM [3H]-ketanserin.

For 9 molecules, Ki results are on record in patent US8598357B2, “Benzodioxole piperidine compounds” (Hoffmann-La Roche Inc., priority 2011, dated 2013).

Usually Ki stands for the dissociation constant of the complex between target and ligand, obtained from inhibition or displacement.

Like-named read-outs stand apart in the source and are kept apart here.

Chain of D2 receptor (P14416 whole entry): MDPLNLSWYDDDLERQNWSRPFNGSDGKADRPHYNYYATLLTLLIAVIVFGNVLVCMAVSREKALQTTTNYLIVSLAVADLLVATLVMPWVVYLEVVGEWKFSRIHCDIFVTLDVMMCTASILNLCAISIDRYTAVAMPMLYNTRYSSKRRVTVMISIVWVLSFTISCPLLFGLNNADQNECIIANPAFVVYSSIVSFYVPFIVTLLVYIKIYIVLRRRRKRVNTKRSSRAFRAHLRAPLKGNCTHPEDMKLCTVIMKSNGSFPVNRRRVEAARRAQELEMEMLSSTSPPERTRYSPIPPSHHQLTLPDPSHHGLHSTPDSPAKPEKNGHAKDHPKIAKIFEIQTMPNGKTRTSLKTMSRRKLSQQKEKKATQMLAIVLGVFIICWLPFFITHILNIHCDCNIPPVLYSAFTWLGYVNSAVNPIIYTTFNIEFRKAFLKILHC
Chain of D3 receptor (P35462 whole entry): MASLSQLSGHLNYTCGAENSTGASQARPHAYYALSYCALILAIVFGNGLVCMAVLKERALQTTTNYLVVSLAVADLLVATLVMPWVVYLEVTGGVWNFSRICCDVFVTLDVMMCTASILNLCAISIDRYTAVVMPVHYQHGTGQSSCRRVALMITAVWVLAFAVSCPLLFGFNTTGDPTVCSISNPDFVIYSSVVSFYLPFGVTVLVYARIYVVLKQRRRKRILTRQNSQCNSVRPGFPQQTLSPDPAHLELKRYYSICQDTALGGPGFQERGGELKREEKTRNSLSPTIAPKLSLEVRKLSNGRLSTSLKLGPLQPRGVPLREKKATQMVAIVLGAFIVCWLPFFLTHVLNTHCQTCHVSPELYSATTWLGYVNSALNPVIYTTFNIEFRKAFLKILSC
Experimental for 5-HT2A receptor: (§1) HEK293 EBNA cells were transiently transfected with expression plasmids encoding for the human D2 or D3 or for the human 5-HT2A receptor, respectively. The cells were harvested 48 h post-transfection, washed three times with cold PBS and stored at −80° C. prior to use. The pellet was suspended in cold 50 mM Tris-HCl buffer containing 10 mM EDTA (pH 7.4) and was homogenized with a Polytron (Kinematica AG, Basel, Switzerland) for 20-30 sec at 12.000 rpm. After centrifugation at 48.000×g for 30 min at 4° C., the pellet was resuspended in cold 10 mM Tris-HCl buffer containing 0.1 mM EDTA (pH 7.4), homogenized, and centrifuged as above. This pellet was further resuspended in a smaller volume of ice cold 10 mM Tris-HCl buffer containing 0.1 mM EDTA (pH 7.4) and homogenized with a Polytron for 20-30 sec at 12.000 rpm. The protein content of this homogenate was determined with the Bio-Rad (Bradford) Protein Assay (Biorad Laboratories GmbH, München, Germany) according to the instructions of the manufacturer using gamma globulin as the standard. This homogenate was stored at −80° C. in aliquots and thawed immediately prior to use.
(§2) Aliquots of membrane preparations were thawed at RT, resuspended in assay buffer (D2, D3: 50 mM Tris-HCl, 120 mM NaCl, 5 mM MgCl2, 1 mM EDTA, 5 mM KCl, 1.5 mM CaCl2, pH=7.4; 5-HT2A: 50 mM Tris-HCl, 10 mM MgCl2, 1 mM EGTA, pH=7.4), homogenized with a Polytron for 20-30 sec at 12.000 rpm and adjusted to a final concentration of approximately 7.5 μg protein/well (D2, D3) and 15 μg protein/well (5-HT2A), respectively.
(§3) The nonspecific binding was determined with equally composed reaction mixtures in the presence of 10 μM unlabelled spiperone. Per well 45 μl of Microscint 40 (Perkin Elmer, Schwerzenbach, Switzerland) was added, plates for sealed, shaken for 20 min and counted for 3 min on a Topcount Microplate Scintillation Counter (Can berra Packard SA, Ziirich, Switzerland) with quenching correction.
(§4) The CPM value for each duplicate of a concentration of competing compound was averaged (y1), then the % specific binding was calculated according to the equation (((y1−non-specific)/(total binding−non-specific))×100). Graphs were plotted with the % specific binding using XLfit, a curve fitting program that iteratively plots the data using Levenberg-Marquardt algorithm. The single site competition analysis equation used was y=A+((B−A)/(1+((x/C)D))), where y is the % specific binding, A is the minimum y, B is the maximum y, C is the IC50, x is the log 10 of the concentration of the competing compound and D is the slope of the curve (the Hill Coefficient). […] The affinity constant (K) was calculated using the Cheng-Prusoff equation Ki=(IC50/1+([L]/Kd), where [L] is the concentration of radioligand and Kd is the dissociation constant of the radioligand at the receptor as determined by the saturation isotherm.
Experimental for D2 receptor: as §1, §2, §3, §4
Experimental for D3 receptor: as §1, §2, §3, §4

`O=C(C[C@H]1CCCCO1)N[C@H]1CC[C@H](CCN2CCC(c3cccc4c3OCO4)CC2)CC1` [Example 41, Trans-N-{4-[2-(4-Benzo[1,3]dioxol-4-yl-piperidin-1-yl)-ethyl]-cyclohexyl}-2-(R)-tetrahydro-pyran-2-yl-acetamide]: the inhibitory constant (Ki) turned out to be 12.6 nM on 5-HT2A receptor, 491 nM on D2 receptor and 7.65 nM on D3 receptor.
Turning to `Cn1cnc(S(=O)(=O)N[C@H]2CC[C@H](CCN3CCC(c4cccc5c4OCO5)CC3)CC2)c1` [Example 72, 1-Methyl-1H-imidazole-4-sulfonic acid-trans-N-{4-[2-(4-benzo[1,3]dioxol-4-yl-piperidin-1-yl)-ethyl]-cyclohexyl}-amide], the values for the Ki at 5-HT2A receptor (setting [1]), on D2 receptor and on D3 receptor were 64.8 nM, 114 nM and 12.4 nM, respectively.
With `O=C(N[C@H]1CC[C@H](CCN2CCC(c3cccc4c3OCO4)CC2)CC1)C(F)(F)F` [Example 73, Trans-N-{4-[2-(4-Benzo[1,3]dioxol-4-yl-piperidin-1-yl)-ethyl]-cyclohexyl}-2,2,2-trifluoro-acetamide], the Ki turned out to be 37.4 nM on 5-HT2A receptor (setting [1]), 346 nM on D2 receptor and 21.4 nM at D3 receptor.
For `CCC(=O)N[C@H]1CC[C@H](CCN2CCC(c3cccc4c3OCO4)CC2)CC1` [Example 7, Trans-N-{4-[2-(4-Benzo[1,3]dioxol-4-yl-piperidin-1-yl)-ethyl]-cyclohexyl}-propionamide] the same measures were 16.6 nM, 204 nM and 4.19 nM.
As for `O=C(N[C@H]1CC[C@H](CCN2CCC(c3cccc4c3OCO4)CC2)CC1)C1(O)CCCCC1` [Example 66, 1-Hydroxy-cyclohexanecarboxylic acid-trans-N-{4-[2-(4-benzo[1,3]dioxol-4-yl-piperidin-1-yl)-ethyl]-cyclohexyl}-amide], the inhibitory constant (Ki) worked out at 3.93 nM on 5-HT2A receptor, 219 nM on D2 receptor and 17.5 nM at D3 receptor.
Regarding `CCOCCC(=O)N[C@H]1CC[C@H](CCN2CCC(c3cccc4c3OCO4)CC2)CC1` [Example 44, Trans-N-{4-[2-(4-Benzo[1,3]dioxol-4-yl-piperidin-1-yl)-ethyl]-cyclohexyl}-3-ethoxy-propionamide], the inhibition constant Ki at 5-HT2A receptor (setting [1]) amounted to 55 nM; at D2 receptor it was 393 nM; on D3 receptor, 7.32 nM.
For `O=C(N[C@H]1CC[C@H](CCN2CCC(c3cccc4c3OCO4)CC2)CC1)c1ccc(Cl)cc1` [Example 36, Trans-N-{4-[2-(4-Benzo[1,3]dioxol-4-yl-piperidin-1-yl)-ethyl]-cyclohexyl}-4-chloro-benzamide] the same measures were 21.8 nM, 147 nM and 6.36 nM.
Consider `O=C(N[C@H]1CC[C@H](CCN2CCC(c3cccc4c3OCO4)CC2)CC1)[C@H](O)C(F)(F)F` [Example 38, Trans-(S)—N-{4-[2-(4-Benzo[1,3]dioxol-4-yl-piperidin-1-yl)-ethyl]-cyclohexyl}-3,3,3-trifluoro-2-hydroxy-propionamide], for which the inhibition constant (Ki) came out at 20.8 nM at 5-HT2A receptor, 209 nM on D2 receptor and 7.63 nM on D3 receptor.
In the case of `O=C(CF)N[C@H]1CC[C@H](CCN2CCC(c3cccc4c3OCO4)CC2)CC1` [Example 76, Trans-N-{4-[2-(4-Benzo[1,3]dioxol-4-yl-piperidin-1-yl)-ethyl]-cyclohexyl}-2-fluoro-acetamide], the Ki on 5-HT2A receptor (setting [1]) was determined as 39.9 nM; at D2 receptor it was 230 nM; on D3 receptor, 12.4 nM.
